pIC50: −log10 of the molar value.
These compounds were tested against Thymidine phosphorylase (Escherichia coli K-12, UniProt P07650) (assay: Inhibition of Escherichia coli thymidine phosphorylase pretreated for 10 mins followed by substrate addition measured at 10 mins interval for 30 mins by spectrophotometric method). Details: not given; call rule not given here.
Thymidine phosphorylase, sequence (P07650 whole entry): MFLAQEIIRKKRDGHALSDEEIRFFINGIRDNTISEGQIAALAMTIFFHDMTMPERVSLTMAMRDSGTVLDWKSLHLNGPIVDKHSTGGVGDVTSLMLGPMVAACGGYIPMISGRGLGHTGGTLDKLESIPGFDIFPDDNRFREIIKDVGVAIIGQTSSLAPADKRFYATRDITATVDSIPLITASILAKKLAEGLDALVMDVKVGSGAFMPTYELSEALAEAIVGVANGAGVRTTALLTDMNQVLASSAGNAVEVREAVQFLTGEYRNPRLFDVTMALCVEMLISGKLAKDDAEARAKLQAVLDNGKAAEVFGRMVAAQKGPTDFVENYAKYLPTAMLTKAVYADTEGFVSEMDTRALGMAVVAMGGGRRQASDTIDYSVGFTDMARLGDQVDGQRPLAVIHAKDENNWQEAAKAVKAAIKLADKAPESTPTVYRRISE
With `O=[N+]([O-])c1ccc(-c2nnc(-c3ccc(C(c4c[nH]c5ccc(Cl)cc45)c4c[nH]c5ccc(Cl)cc45)cc3)o2)cc1` the IC50 was “Not Active”. In the case of `Cc1cccc(-c2nnc(-c3ccc(C(c4c[nH]c5ccc(Cl)cc45)c4c[nH]c5ccc(Cl)cc45)cc3)o2)c1`, the IC50 was “Not Active”. For `Cc1ccc(-c2nnc(-c3ccc(C(c4c[nH]c5ccc(Cl)cc45)c4c[nH]c5ccc(Cl)cc45)cc3)o2)cc1`, the IC50 was “Not Active”. `Clc1ccc2[nH]cc(C(c3ccc(-c4nnc(-c5cccnc5)o4)cc3)c3c[nH]c4ccc(Cl)cc34)c2c1` was tested, and the IC50 was “Not Active”. `Clc1ccc2[nH]cc(C(c3ccc(-c4nnc(-c5ccncc5)o4)cc3)c3c[nH]c4ccc(Cl)cc34)c2c1` was tested, and the IC50 was “Not Active”. `Cc1ccccc1-c1nnc(-c2ccc(C(c3c[nH]c4ccc(Cl)cc34)c3c[nH]c4ccc(Cl)cc34)cc2)o1` was tested, and the IC50 was “Not Active”. `O=[N+]([O-])c1cccc(-c2nnc(-c3ccc(C(c4c[nH]c5ccc(Cl)cc45)c4c[nH]c5ccc(Cl)cc45)cc3)o2)c1` was tested, and the IC50 was “Not Active”.

Same assay, conditions: read-out: IC50
`O=[N+]([O-])c1ccccc1-c1nnc(-c2ccc(C(c3c[nH]c4ccc(Cl)cc34)c3c[nH]c4ccc(Cl)cc34)cc2)o1` gave a pIC50 of 4.19. In the case of `Oc1ccc(-c2nnc(-c3ccc(C(c4c[nH]c5ccc(Cl)cc45)c4c[nH]c5ccc(Cl)cc45)cc3)o2)c(O)c1`, the pIC50 was 5.46. Compound `COc1ccc(-c2nnc(-c3ccc(C(c4c[nH]c5ccc(Cl)cc45)c4c[nH]c5ccc(Cl)cc45)cc3)o2)c(O)c1` has a pIC50 of 4.45. Compound `Clc1ccc(-c2nnc(-c3ccc(C(c4c[nH]c5ccc(Cl)cc45)c4c[nH]c5ccc(Cl)cc45)cc3)o2)cc1` has a pIC50 of 4.34. `Oc1ccc(O)c(-c2nnc(-c3ccc(C(c4c[nH]c5ccc(Cl)cc45)c4c[nH]c5ccc(Cl)cc45)cc3)o2)c1` was tested, and the pIC50 was 5.21. With `Fc1ccccc1-c1nnc(-c2ccc(C(c3c[nH]c4ccc(Cl)cc34)c3c[nH]c4ccc(Cl)cc34)cc2)o1` the pIC50 was 4.76. `Oc1ccc(-c2nnc(-c3ccc(C(c4c[nH]c5ccc(Cl)cc45)c4c[nH]c5ccc(Cl)cc45)cc3)o2)cc1` was tested, and the pIC50 was 4.61. With `Oc1ccc(-c2nnc(-c3ccc(C(c4c[nH]c5ccc(Cl)cc45)c4c[nH]c5ccc(Cl)cc45)cc3)o2)cc1O` the pIC50 was 4.92. Work on `COc1ccc(O)c(-c2nnc(-c3ccc(C(c4c[nH]c5ccc(Cl)cc45)c4c[nH]c5ccc(Cl)cc45)cc3)o2)c1` yielded a pIC50 of 4.34. Work on `Fc1cccc(-c2nnc(-c3ccc(C(c4c[nH]c5ccc(Cl)cc45)c4c[nH]c5ccc(Cl)cc45)cc3)o2)c1` yielded a pIC50 of 4.53. For `Oc1ccccc1-c1nnc(-c2ccc(C(c3c[nH]c4ccc(Cl)cc34)c3c[nH]c4ccc(Cl)cc34)cc2)o1`, the pIC50 was 4.36. `Fc1ccc(-c2nnc(-c3ccc(C(c4c[nH]c5ccc(Cl)cc45)c4c[nH]c5ccc(Cl)cc45)cc3)o2)cc1` showed a pIC50 of 5.04. `Clc1ccc2[nH]cc(C(c3ccc(-c4nnc(-c5ccccc5Cl)o4)cc3)c3c[nH]c4ccc(Cl)cc34)c2c1` gave a pIC50 of 4.53. `Clc1ccc2[nH]cc(C(c3ccc(-c4nnc(-c5ccccn5)o4)cc3)c3c[nH]c4ccc(Cl)cc34)c2c1` showed a pIC50 of 4.42. `COc1ccc(-c2nnc(-c3ccc(C(c4c[nH]c5ccc(Cl)cc45)c4c[nH]c5ccc(Cl)cc45)cc3)o2)cc1O` was tested, and the pIC50 was 4.47. In the case of `Clc1cccc(-c2nnc(-c3ccc(C(c4c[nH]c5ccc(Cl)cc45)c4c[nH]c5ccc(Cl)cc45)cc3)o2)c1`, the pIC50 was 4.26. `Oc1cccc(-c2nnc(-c3ccc(C(c4c[nH]c5ccc(Cl)cc45)c4c[nH]c5ccc(Cl)cc45)cc3)o2)c1O` gave a pIC50 of 5.03. `Oc1cccc(-c2nnc(-c3ccc(C(c4c[nH]c5ccc(Cl)cc45)c4c[nH]c5ccc(Cl)cc45)cc3)o2)c1` was tested, and the pIC50 was 4.27.

Source: ChEMBL document CHEMBL4118233, “Rational design of bis-indolylmethane-oxadiazole hybrids as inhibitors of thymidine phosphorylase” (Bioorg Med Chem, 2018)
